# Measurements taken from PMC2949283 (The Biochemical journal, 2009).
# Read-outs that look alike come from different tables or passages of the source.
# Experiments:
# Assay type in all cases: biochemical
# Wild Type HuAChE = Wild Type HuAChE (Homo sapiens, UniProt P22303); assay: HuAChE inhibition kinetics
# W86A HuAChE = W86A HuAChE (Homo sapiens, UniProt P22303, W117A); assay: HuAChE inhibition kinetics
# W86F HuAChE = W86F HuAChE (Homo sapiens, UniProt P22303, W117F); assay: HuAChE inhibition kinetics; conditions: W86F HuAChE
# Y133A HuAChE = Y133A HuAChE (Homo sapiens, UniProt P22303, Y164A); assay: HuAChE inhibition kinetics; conditions: Y133A HuAChE; for Kd: read-out: Kd, Michaelis complex (Eq. 1), NI = No inhibition between […]10^−6- […]10^−4M
# Y337A HuAChE = Y337A HuAChE (Homo sapiens, UniProt P22303, Y368A); assay: HuAChE inhibition kinetics
# Y337F HuAChE = Y337F HuAChE (Homo sapiens, UniProt P22303, Y368F); assay: HuAChE inhibition kinetics; conditions: Y337F HuAChE
# F338A HuAChE = F338A HuAChE (Homo sapiens, UniProt P22303, F369A); assay: HuAChE inhibition kinetics
# Y133F HuAChE = Y133F HuAChE (Homo sapiens, UniProt P22303, Y164F); assay: HuAChE inhibition kinetics; conditions: Y133F HuAChE
# E202A HuAChE = E202A HuAChE (Homo sapiens, UniProt P22303, E233A); assay: HuAChE inhibition kinetics; conditions: E202A HuAChE
# E202Q HuAChE = E202Q HuAChE (Homo sapiens, UniProt P22303, E233Q); assay: HuAChE inhibition kinetics; conditions: E202Q HuAChE
# E450A HuAChE = E450A HuAChE (Homo sapiens, UniProt P22303, E481A); assay: HuAChE inhibition kinetics; conditions: E450A HuAChE
# F295A HuAChE = F295A HuAChE (Homo sapiens, UniProt P22303, F326A); assay: HuAChE inhibition kinetics
# F297A HuAChE = F297A HuAChE (Homo sapiens, UniProt P22303, F328A); assay: HuAChE inhibition kinetics
# D74N HuAChE = D74N HuAChE (Homo sapiens, UniProt P22303, D105N); assay: HuAChE inhibition kinetics; conditions: D74N HuAChE
# Y124A HuAChE = Y124A HuAChE (Homo sapiens, UniProt P22303, Y155A); assay: HuAChE inhibition kinetics
# W286A HuAChE = W286A HuAChE (Homo sapiens, UniProt P22303, W317A); assay: HuAChE inhibition kinetics; conditions: W286A HuAChE
# Y341A HuAChE = Y341A HuAChE (Homo sapiens, UniProt P22303, Y372A); assay: HuAChE inhibition kinetics; conditions: Y341A HuAChE
# F295A/F338A HuAChE = F295A/F338A HuAChE (Homo sapiens, UniProt P22303, F326A/F369A); assay: HuAChE inhibition kinetics; conditions: F295A/F338A HuAChE
# F295A/F338A/V407F HuAChE = F295A/F338A/V407F HuAChE (Homo sapiens, UniProt P22303, F326A/F369A/V438F); assay: HuAChE inhibition kinetics; conditions: F295A/F338A/V407F HuAChE
# F295L/F297V/Y337A HuAChE = F295L/F297V/Y337A HuAChE (Homo sapiens, UniProt P22303, F326L/F328V/Y368A); assay: HuAChE inhibition kinetics; conditions: F295L/F297V/Y337A HuAChE
# [1] = target: Y72N/Y124Q/W286A/ F295L/F297V/Y337A HuAChE (Homo sapiens, UniProt P22303, F326L/F328V/W317A/Y103N/Y155Q/Y368A); assay: HuAChE inhibition kinetics; conditions: Y72N/Y124Q/W286A/F295L/F297V/Y337A HuAChE
# HuBChE-Wild Type = HuBChE-Wild Type (Homo sapiens, UniProt P06276); assay: HuBChE inhibition kinetics; conditions: for k2, carbamylation rate constant: HuBChE-Wild Type
# W86A/Y337A HuAChE = W86A/Y337A HuAChE (Homo sapiens, UniProt P22303, W117A/Y368A); assay: biochemical
# Y72N HuAChE = Y72N HuAChE (Homo sapiens, UniProt P22303, Y103N); assay: HuAChE inhibition kinetics; conditions: Y72N HuAChE
# F295L/F297V HuAChE = F295L/F297V HuAChE (Homo sapiens, UniProt P22303, F326L/F328V); assay: HuAChE inhibition kinetics; conditions: F295L/F297V HuAChE
# F295A/F297A HuAChE = F295A/F297A HuAChE (Homo sapiens, UniProt P22303, F326A/F328A); assay: HuAChE inhibition kinetics
# [2] = target: Y72N/Y124Q/W286A/ F295L/F297V/Y337A/ V407F HuAChE (Homo sapiens, UniProt P22303, F326L/F328V/V438F/W317A/Y103N/Y155Q/Y368A); assay: HuAChE inhibition kinetics; conditions: Y72N/Y124Q/W286A/F295L/F297V/Y337A/V407F HuAChE
# Sequence of Wild Type HuAChE (P22303 32-614): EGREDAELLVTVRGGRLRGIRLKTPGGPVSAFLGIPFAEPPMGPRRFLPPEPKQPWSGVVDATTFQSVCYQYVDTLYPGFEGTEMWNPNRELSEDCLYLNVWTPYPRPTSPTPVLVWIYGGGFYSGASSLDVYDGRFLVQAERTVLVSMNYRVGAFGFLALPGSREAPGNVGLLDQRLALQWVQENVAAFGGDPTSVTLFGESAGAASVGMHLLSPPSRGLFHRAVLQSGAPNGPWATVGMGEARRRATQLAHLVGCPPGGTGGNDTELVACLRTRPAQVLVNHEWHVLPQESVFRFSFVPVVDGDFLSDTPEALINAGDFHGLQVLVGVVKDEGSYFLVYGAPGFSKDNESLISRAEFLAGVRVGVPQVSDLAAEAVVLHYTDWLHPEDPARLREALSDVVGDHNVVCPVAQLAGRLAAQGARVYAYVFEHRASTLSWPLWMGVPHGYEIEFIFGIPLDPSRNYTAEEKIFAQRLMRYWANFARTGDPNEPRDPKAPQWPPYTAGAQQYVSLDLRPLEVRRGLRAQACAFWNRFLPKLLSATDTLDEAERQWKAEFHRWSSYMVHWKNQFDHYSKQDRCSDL
# Sequence of F297A HuAChE (P22303 32-614 F328A): as the sequence (P22303 32-614) above, with F297A counted along it
# Sequence of Y337A HuAChE (P22303 32-614 Y368A): as the sequence (P22303 32-614) above, with Y337A counted along it
# Sequence of Y133A HuAChE (P22303 32-614 Y164A): as the sequence (P22303 32-614) above, with Y133A counted along it
# Sequence of W86A/Y337A HuAChE (P22303 32-614 W117A/Y368A): as the sequence (P22303 32-614) above, with W86A, Y337A counted along it
# Sequence of F295A/F297A HuAChE (P22303 32-614 F326A/F328A): as the sequence (P22303 32-614) above, with F295A, F297A counted along it
# Sequence of F295A HuAChE (P22303 32-614 F326A): as the sequence (P22303 32-614) above, with F295A counted along it
# Sequence of W86A HuAChE (P22303 32-614 W117A): as the sequence (P22303 32-614) above, with W86A counted along it
compound,measurement,setting,value
"CNC(=O)Oc1ccc2c(c1)[C@]1(C)CCN(C)[C@@H]1N2C [(−)-Physostigmine, (−)physostigmine salicylate]","k2, carbamylation rate constant",Wild Type HuAChE; Wild Type HuAChE,1.2 ± 0.5 min⁻¹
same,"k2, carbamylation rate constant",W86A HuAChE; W86A HuAChE,0.80 ± 0.30 min⁻¹
same,"k2, carbamylation rate constant",W86F HuAChE,0.90 ± 0.20 min⁻¹
same,"k2, carbamylation rate constant",Y133A HuAChE,0.40 ± 0.02 min⁻¹
same,"k2, carbamylation rate constant",Y337A HuAChE; Y337A HuAChE,1.10 ± 0.50 min⁻¹
same,"k2, carbamylation rate constant",Y337F HuAChE,1.90 ± 0.40 min⁻¹
same,"k2, carbamylation rate constant",F338A HuAChE; F338A HuAChE,0.40 ± 0.20 min⁻¹
same,"k2, carbamylation rate constant",Y133F HuAChE,0.13 ± 0.01 min⁻¹
same,"k2, carbamylation rate constant",E202A HuAChE,0.24 ± 0.05 min⁻¹
same,"k2, carbamylation rate constant",E202Q HuAChE,0.80 ± 0.20 min⁻¹
same,"k2, carbamylation rate constant",E450A HuAChE,0.15 ± 0.01 min⁻¹
same,"k2, carbamylation rate constant",F295A HuAChE; F295A HuAChE,1.60 ± 0.50 min⁻¹
same,"k2, carbamylation rate constant",F297A HuAChE; F297A HuAChE,0.60 ± 0.10 min⁻¹
same,"k2, carbamylation rate constant",D74N HuAChE,2.40 ± 0.50 min⁻¹
same,"k2, carbamylation rate constant",Y124A HuAChE,6.0 ± 1.8 min⁻¹
same,"ki, bimolecular rate constant of carbamylation",Y124A HuAChE,150±3 × 10^−4 M^−1min^−1
same,"k2, carbamylation rate constant",W286A HuAChE,2.70 ± 0.80 min⁻¹
same,"ki, bimolecular rate constant of carbamylation",W286A HuAChE,365±40 × 10^−4 M^−1min^−1
same,"k2, carbamylation rate constant",Y341A HuAChE,1.90 ± 0.30 min⁻¹
same,"k2, carbamylation rate constant",F295A/F338A HuAChE,4.5 ± 0.9 min⁻¹
same,"ki, bimolecular rate constant of carbamylation",F295A/F338A HuAChE,78±19 × 10^−4 M^−1min^−1
same,"k2, carbamylation rate constant",F295A/F338A/V407F HuAChE,0.2 ± 0.03 min⁻¹
same,"k2, carbamylation rate constant",F295L/F297V/Y337A HuAChE,0.75 ± 0.20 min⁻¹
same,"k2, carbamylation rate constant",[1],0.20 ± 0.05 min⁻¹
same,"ki, bimolecular rate constant of carbamylation",[1],34±1.2 × 10^−4 M^−1min^−1
same,"k2, carbamylation rate constant",HuBChE-Wild Type,0.55 ± 0.05 min⁻¹
same,"k2, carbamylation rate constant",W86A/Y337A HuAChE,1.2 ± 0.18 min⁻¹
same,"ki, bimolecular rate constant of carbamylation",W86A/Y337A HuAChE,866 ±130 × 10^−4 M^−1min^−1
same,"k2, carbamylation rate constant",Y72N HuAChE,0.9 ± 0.14 min⁻¹
same,"k2, carbamylation rate constant",F295L/F297V HuAChE,2.0 ± 0.4 min⁻¹
same,"k2, carbamylation rate constant",F295A/F297A HuAChE,0.6 ± 0.2 min⁻¹
same,"k2, carbamylation rate constant",[2],1.25 ± 0.25 min⁻¹
same,"ki, bimolecular rate constant of carbamylation",[2],18±3 × 10^−4 M^−1min^−1
physovenine [(+)-Physovenine],Kd,"Wild Type HuAChE; read-out: Kd, Michaelis complex (Eq. 1), Wild Type HuAChE",1400 ± 130 nM
same,Kd,"W86A HuAChE; read-out: Kd, Michaelis complex (Eq. 1), W86A HuAChE",280 ± 28.5 µM
same,Kd,Y133A HuAChE,> 250 µM
same,Kd,"Y337A HuAChE; read-out: Kd, Michaelis complex (Eq. 1), Y337A HuAChE",15 ± 1.6 µM
same,Kd,"F338A HuAChE; read-out: Kd, Michaelis complex (Eq. 1), F338A HuAChE",700 ± 100 nM
same,Kd,"F295A HuAChE; read-out: Kd, Michaelis complex (Eq. 1), F295A HuAChE",90 ± 25 nM
same,Kd,"F297A HuAChE; read-out: Kd, Michaelis complex (Eq. 1), F297A HuAChE",1000 ± 350 nM
same,Kd,"W86A/Y337A HuAChE; read-out: Kd, Michaelis complex (Eq. 1), […], Table 3: Activity measured with TB",281 ± 45 µM
same,Kd,"F295A/F297A HuAChE; read-out: Kd, Michaelis complex (Eq. 1)",280 ± 80 nM
"CCN(C)C(=O)Oc1cccc([C@H](C)N(C)C)c1 [Rivastigmine, rivastigmine]",k2 higher than for HuAChE,HuBChE-Wild Type; HuBChE vs HuAChE,9 fold
same,reactivity toward HuBChE higher than toward HuAChE,HuBChE-Wild Type; HuBChE vs HuAChE,15 fold
same,"k2, carbamylation rate constant",HuBChE-Wild Type,0.90 ± 0.03 min⁻¹
"CNC(=O)Oc1ccc2c(c1)[C@]1(C)CCO[C@@H]1N2C [(−)-Physovenine, physovenine]",Kd,Wild Type HuAChE,430 ± 90 nM
same,Kd,W86A HuAChE,120 ± 24 µM
same,Kd,Y133A HuAChE,> 250 µM
same,Kd,Y337A HuAChE,0.85 ± 0.2 µM
same,Kd,F338A HuAChE,2560 ± 600 nM
same,Kd,F295A HuAChE,100 ± 27 nM
same,Kd,F297A HuAChE,630 ± 40 nM
same,Kd,W86A/Y337A HuAChE,413 ± 85 µM
same,Kd,"F295A/F297A HuAChE; Kd, Michaelis complex (Eq. 1)",230 ± 70 nM
